This note sets out measurements from patent US11000033B2, “Ketone or oxime compound, and herbicide” (NISSAN CHEMICAL CORPORATION, priority 2014, dated 2021).

Assay type in all cases: in vivo
Data set [1] has as its system Echinochloa oryzacola Vasing. Nature of the data set: Test Example 2: herbicidal activity, application during weed generation in submerged conditions (symbol A). Particulars: Table 23; application herbicide amount 320 g/ha; grade 0-5 by criteria of Test Example 1. The essentials:
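Scoring of herbicidal effect took place 3 weeks after treatment, using the criteria of the earlier test. Treatment was water-surface application of diluted emulsifiable compound at a set dose. Plants were at one- to two-leaf stage in submerged alluvial soil (4 cm depth), greenhouse 25-30° C.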

Another data set relates to corn. Nature of the data set: Test Example 5: effect on crop by foliage application, plastic box (symbol c). Particulars: 320 g/ha, 3 weeks after application. The essentials: (§1)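 Greenhouse test at 25° C. to 30° C. Seeds of crops and weeds were spot-sown in boxes of sterilized diluvial soil under roughly 1.5 cm soil cover, then grown for foliage treatment.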
Another data set has as its system Lolium multiflorum Lam. Nature of the data set: Test Example 5: herbicidal effect by foliage application, plastic box (symbol K). Particulars: 320 g/ha, 3 weeks after application. In a few lines: (§2)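 Sowing in sterilized diluvial soil, 14 days' greenhouse growth at 25° C. to 30° C., then uniform small-sprayer foliar application of aqueous emulsion dilution; plants scored three weeks afterwards.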

In data set [2] the test system is Veronica persica. Nature of the data set: Test Example 4: herbicidal effect by soil treatment (symbol R). Particulars: application herbicide amount 320 g/ha. In a few lines:
(§3)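 Seeds were sown in sterilized diluvial soil, covered with about 1.5 cm of soil, and the soil surface was sprayed with a water-diluted emulsion of the compound at a predetermined rate. Plants grew in a greenhouse at 25° C. to 30° C.; effects were scored visually 3 weeks after application.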

The test system of another data set is beet. Put plainly: Test Example 5: effect on crop by foliage application, plastic box (symbol f). Particulars: 320 g/ha, 3 weeks after application. In a few lines: as §1
A further data set deals with rapeseed. Nature of the data set: Test Example 5: effect on crop by foliage application, plastic box (symbol g). Particulars: 320 g/ha, 3 weeks after application. In a few lines:
as §1

The subject of another data set is Avena fatua. Put plainly: Test Example 5: herbicidal effect by foliage application, plastic box (symbol I). Particulars: 320 g/ha, 3 weeks after application. The essentials:
as §2

The subject of a further data set is Digitaria ciliaris. Put plainly: Test Example 4: herbicidal effect by soil treatment (symbol F). Particulars: application herbicide amount 320 g/ha. In a few lines:
as §3

For a further data set, the system named is Monochoria vaginalis. Put plainly: Test Example 1: herbicidal activity, application before weed generation in submerged conditions (symbol C). Particulars: application herbicide amount 320 g/ha. In a few lines:
(§4)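 Compound emulsion was diluted to a set herbicide amount and applied to the water surface on the sowing day, into submerged (4 cm) alluvial-soil pots sown with mixed weed seeds and transplanted 2.5-leaf rice. Pots were held in a 25–30 °C greenhouse, and weeds were scored 0–5 by herbicidal ratio after 3 weeks.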

The subject of data set [3] is Echinochloa oryzacola Vasing. Nature of the data set: Test Example 1: herbicidal activity, application before weed generation in submerged conditions (symbol A). Particulars: application herbicide amount 320 g/ha. The essentials: as §4
The subject of data set [4] is Veronica persica. Put plainly: Test Example 5: herbicidal effect by foliage application, plastic box (symbol R). Particulars: 320 g/ha, 3 weeks after application. In a few lines: as §2

With `CON=C(C)CC1CC(OC(=O)COc2ccccc2)=C(c2c(C)cc(C)cc2OC)C1=O` (stereo not drawn) [6-091], the “Herbicidal effect grade, A: Echinochloa oryzacola Vasing.” value in data set [1] and in [3] was 5 (Herbicidal ratio of 90% or more (almost completely withered)) throughout. Also, in the data set with corn, the “c: corn, effect on crop (criteria of Test Example 1)” value (“c: corn, effect on crop” below) is reported as 5 (Herbicidal ratio of 90% or more (almost completely withered)). Further, the “K: Lolium multiflorum Lam., herbicidal effect (criteria of Test Example 1)” value with Lolium multiflorum Lam. is 5 (Herbicidal ratio of 90% or more (almost completely withered)). Besides, the “Herbicidal effect grade, R: Veronica persica” value (shortened to “Herbicidal effect grade, R”) in the data set with Veronica persica [2] was 4 (Herbicidal ratio of 70% or higher and lower than 90%). The “f: beet, effect on crop (criteria of Test Example 1)” value (shortened to “f: beet, effect on crop”) in the data set on beet is 3 (Herbicidal ratio of 40% or higher and lower than 70%). The “g: rapeseed, effect on crop (criteria of Test Example 1)” value (“g: rapeseed, effect on crop” for short) with rapeseed is recorded as 5 (Herbicidal ratio of 90% or more (almost completely withered)). Also, the “I: Avena fatua, herbicidal effect (criteria of Test Example 1)” value (“I: Avena fatua, herbicidal effect” below) in the data set with Avena fatua is 5 (Herbicidal ratio of 90% or more (almost completely withered)). Also, in the data set on Digitaria ciliaris, the “Herbicidal effect grade, F: Digitaria ciliaris” value (“Herbicidal effect grade, F” for short) is recorded as 5 (Herbicidal ratio of 90% or more (almost completely withered)). Also, the “Herbicidal effect grade, C: Monochoria vaginalis” value (“Herbicidal effect grade, C” below) in the data set with Monochoria vaginalis was 4 (Herbicidal ratio of 70% or higher and lower than 90%). In addition, the “R: Veronica persica, herbicidal effect (criteria of Test Example 1)” value (“R: Veronica persica, herbicidal effect” for short) with Veronica persica [4] is 4 (Herbicidal ratio of 70% or higher and lower than 90%).
Consider `CON=C(C)CC1CC(OC(=O)COc2ccccc2)=C(c2c(C)cc(-c3ccc(Cl)cc3Cl)cc2C)C1=O` (stereo not drawn) [6-092], for which the “Herbicidal effect grade, A: Echinochloa oryzacola Vasing.” value is 1 (Herbicidal ratio of 5% or higher and lower than 20%) in data set [1]; 3 (Herbicidal ratio of 40% or higher and lower than 70%) in [3]. The “c: corn, effect on crop” value in the data set on corn was 2 (Herbicidal ratio of 20% or higher and lower than 40%). The “K: Lolium multiflorum Lam., herbicidal effect (criteria of Test Example 1)” value in the data set with Lolium multiflorum Lam. is listed as 5 (Herbicidal ratio of 90% or more (almost completely withered)). Besides, the “Herbicidal effect grade, R” value in the data set on Veronica persica [2] is given as 0 (Herbicidal ratio of 5% or lower (almost no effect)). In the data set with beet, the “f: beet, effect on crop” value was 0 (Herbicidal ratio of 5% or lower (almost no effect)). Further, the “g: rapeseed, effect on crop” value with rapeseed was 4 (Herbicidal ratio of 70% or higher and lower than 90%). Moreover, in the data set with Avena fatua, the “I: Avena fatua, herbicidal effect” value is given as 5 (Herbicidal ratio of 90% or more (almost completely withered)). For the same compound, in the data set with Digitaria ciliaris, the “Herbicidal effect grade, F” value is 5 (Herbicidal ratio of 90% or more (almost completely withered)). The “Herbicidal effect grade, C” value in the data set on Monochoria vaginalis is 0 (Herbicidal ratio of 5% or lower (almost no effect)). In the data set with Veronica persica [4], the “R: Veronica persica, herbicidal effect” value was 4 (Herbicidal ratio of 70% or higher and lower than 90%).
In the case of `CON=C(C)CC1CC(OC(=O)N2CCOCC2)=C(c2c(C)cc(-c3ccc(F)c(Cl)c3)cc2C)C1=O` (stereo not drawn) [6-093], the “Herbicidal effect grade, A: Echinochloa oryzacola Vasing.” value in [1] and in data set [3] was 5 (Herbicidal ratio of 90% or more (almost completely withered)) in each case. Also, the “c: corn, effect on crop” value with corn is listed as 5 (Herbicidal ratio of 90% or more (almost completely withered)). Further, in the data set with Lolium multiflorum Lam., the “K: Lolium multiflorum Lam., herbicidal effect (criteria of Test Example 1)” value is recorded as 5 (Herbicidal ratio of 90% or more (almost completely withered)). In the data set on Veronica persica [2], the “Herbicidal effect grade, R” value is 4 (Herbicidal ratio of 70% or higher and lower than 90%). In addition, the “f: beet, effect on crop” value in the data set on beet was 3 (Herbicidal ratio of 40% or higher and lower than 70%). For the same compound, in the data set on rapeseed, the “g: rapeseed, effect on crop” value is 4 (Herbicidal ratio of 70% or higher and lower than 90%). In addition, the “I: Avena fatua, herbicidal effect” value with Avena fatua was 5 (Herbicidal ratio of 90% or more (almost completely withered)). For the same compound, the “Herbicidal effect grade, F” value with Digitaria ciliaris was 5 (Herbicidal ratio of 90% or more (almost completely withered)). Moreover, in the data set on Monochoria vaginalis, the “Herbicidal effect grade, C” value is 4 (Herbicidal ratio of 70% or higher and lower than 90%). Also, the “R: Veronica persica, herbicidal effect” value with Veronica persica [4] is 5 (Herbicidal ratio of 90% or more (almost completely withered)).
Turning to `CON=C(C)CC1CC(OS(=O)(=O)N(C)C)=C(c2c(C)cc(C)cc2OC)C1=O` (stereo not drawn) [6-095], the “Herbicidal effect grade, A: Echinochloa oryzacola Vasing.” value in data set [1] and in [3] was 5 (Herbicidal ratio of 90% or more (almost completely withered)) each time. Further, the “c: corn, effect on crop” value with corn was 5 (Herbicidal ratio of 90% or more (almost completely withered)). Moreover, the “K: Lolium multiflorum Lam., herbicidal effect (criteria of Test Example 1)” value in the data set with Lolium multiflorum Lam. is 5 (Herbicidal ratio of 90% or more (almost completely withered)). The “Herbicidal effect grade, R” value in the data set on Veronica persica [2] is 0 (Herbicidal ratio of 5% or lower (almost no effect)). For the same compound, the “f: beet, effect on crop” value with beet is recorded as 0 (Herbicidal ratio of 5% or lower (almost no effect)). Besides, the “g: rapeseed, effect on crop” value in the data set on rapeseed was 4 (Herbicidal ratio of 70% or higher and lower than 90%). Also, the “I: Avena fatua, herbicidal effect” value in the data set with Avena fatua is 5 (Herbicidal ratio of 90% or more (almost completely withered)). Also, in the data set on Digitaria ciliaris, the “Herbicidal effect grade, F” value is 5 (Herbicidal ratio of 90% or more (almost completely withered)). In the data set with Monochoria vaginalis, the “Herbicidal effect grade, C” value is 0 (Herbicidal ratio of 5% or lower (almost no effect)). The “R: Veronica persica, herbicidal effect” value with Veronica persica [4] is 3 (Herbicidal ratio of 40% or higher and lower than 70%).
On to `CON=C(C)CC1CC(OC(=O)COc2ccccc2)=C(c2c(C)cc(-c3ccccc3)cc2OC)C1=O` (stereo not drawn) [6-100], for which the “Herbicidal effect grade, A: Echinochloa oryzacola Vasing.” value in data set [1] and in data set [3] was 5 (Herbicidal ratio of 90% or more (almost completely withered)) each time. Moreover, the “c: corn, effect on crop” value in the data set with corn is 5 (Herbicidal ratio of 90% or more (almost completely withered)). Also, in the data set with Lolium multiflorum Lam., the “K: Lolium multiflorum Lam., herbicidal effect (criteria of Test Example 1)” value is recorded as 5 (Herbicidal ratio of 90% or more (almost completely withered)). Further, the “Herbicidal effect grade, R” value in the data set on Veronica persica [2] is given as 5 (Herbicidal ratio of 90% or more (almost completely withered)). The “f: beet, effect on crop” value in the data set on beet is 0 (Herbicidal ratio of 5% or lower (almost no effect)). Moreover, in the data set on rapeseed, the “g: rapeseed, effect on crop” value is reported as 5 (Herbicidal ratio of 90% or more (almost completely withered)). In the data set with Avena fatua, the “I: Avena fatua, herbicidal effect” value is listed as 5 (Herbicidal ratio of 90% or more (almost completely withered)). Further, the “Herbicidal effect grade, F” value in the data set with Digitaria ciliaris is 5 (Herbicidal ratio of 90% or more (almost completely withered)). In the data set with Monochoria vaginalis, the “Herbicidal effect grade, C” value is reported as 5 (Herbicidal ratio of 90% or more (almost completely withered)). For the same compound, the “R: Veronica persica, herbicidal effect” value in the data set with Veronica persica [4] is 3 (Herbicidal ratio of 40% or higher and lower than 70%).
`CON=C(C)CC1CC(O)=C(c2c(C)cc(-c3cc(F)c(F)c(F)c3)cc2C)C1=O` (stereo not drawn) [6-104]: the “Herbicidal effect grade, A: Echinochloa oryzacola Vasing.” value in data set [1] and in data set [3] was 5 (Herbicidal ratio of 90% or more (almost completely withered)) in each case. Moreover, in the data set with corn, the “c: corn, effect on crop” value was 5 (Herbicidal ratio of 90% or more (almost completely withered)). Further, the “K: Lolium multiflorum Lam., herbicidal effect (criteria of Test Example 1)” value in the data set with Lolium multiflorum Lam. is 5 (Herbicidal ratio of 90% or more (almost completely withered)). Moreover, the “Herbicidal effect grade, R” value in the data set with Veronica persica [2] was 4 (Herbicidal ratio of 70% or higher and lower than 90%). For the same compound, in the data set on beet, the “f: beet, effect on crop” value was 4 (Herbicidal ratio of 70% or higher and lower than 90%). In the data set with rapeseed, the “g: rapeseed, effect on crop” value was 4 (Herbicidal ratio of 70% or higher and lower than 90%). Moreover, the “I: Avena fatua, herbicidal effect” value with Avena fatua is given as 5 (Herbicidal ratio of 90% or more (almost completely withered)). In the data set with Digitaria ciliaris, the “Herbicidal effect grade, F” value is listed as 5 (Herbicidal ratio of 90% or more (almost completely withered)). Also, in the data set with Monochoria vaginalis, the “Herbicidal effect grade, C” value was 5 (Herbicidal ratio of 90% or more (almost completely withered)). In the data set with Veronica persica [4], the “R: Veronica persica, herbicidal effect” value is 4 (Herbicidal ratio of 70% or higher and lower than 90%).
